Measured values taken from ChEMBL document CHEMBL5604062, “ASAP - ZIKV NS2B-NS3 protease fluorescence dose response” (2024).
Several values for one entry are separate records, joined by “and”; a condition that tells them apart may be missing. Equal entries are not always repeated.

Key:
Nonstructural protein 3 [1] = target: T1, Nonstructural protein 3 (Zika virus, UniProt A0A024AXB9); experiment: Functional biochemical assay to identify treatments for viral infectious disease that targets Zika NS2B-NS3 protease. Utilizing a direct enzyme activity measurement method, reading the fluorescence intensity is used to characterize the relative potency of inhibitors as IC50.; design: species or system PRVABC59
Nonstructural protein 3 [2] = target: T1, Nonstructural protein 3; experiment: Functional biochemical assay to identify treatments for viral infectious disease that targets Zika NS2B-NS3 protease. Utilizing a direct enzyme activity measurement method, reading the fluorescence intensity is used to characterize the relative potency of inhibitors as IC50. Synthetic construct has been made based on Zika virus (strain PRVABC59) by Centre for Medicines Discovery, University of Oxford, and the assay has been performed by Enamine biological services, Bienta Ltd.The protocol is publicly available: dx.doi.org/10.17504/protocols.io.36wgqn273gk5/v1

T1 sequence (A0A024AXB9 whole entry): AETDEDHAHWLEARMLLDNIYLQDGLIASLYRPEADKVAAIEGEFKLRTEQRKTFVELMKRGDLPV

Structure (SMILES)	IC50 (Nonstructural protein 3 [1])	IC50 (Nonstructural protein 3 [2])
N=C(N)NCCC[C@H](NC(=O)[C@H](Cc1ccc(CN)cc1)NC(=O)c1ccccc1)B(O)O	508 nM and 353 nM and 260 nM and 186 nM and 245 nM and 211 nM (2×) and 238 nM and < 2.49 µM (9×) and 73 nM and 247 nM and 292 nM and 237 nM and 241 nM and 141 nM and 262 nM and 254 nM and 233 nM	559 nM and 327 nM and 558 nM and 628 nM and 585 nM and 637 nM and 438 nM and 552 nM and 595 nM
NC(=O)COc1ccc(Br)cc1[C@H](Nc1ccc2c(c1)CNC2)C(=O)NCC(F)F	69 nM and 55 nM	193 nM and 233 nM
O=C(NCC(F)F)[C@H](Nc1ccc2c(c1)CNC2)c1cc(Br)cc2nc[nH]c12	44 nM and 37 nM	201 nM
NC(=O)c1cn(C2CCCC2)nc1NC(=O)c1cccc2c1CC(=O)N2	> 25000 nM	> 25000 nM
O=C1Cc2c(cccc2C(=O)Nc2cnn(Cc3ccncc3)c2)N1	> 25000 nM	> 25000 nM
Cc1c(C(=O)Nc2ccc3c(c2)C[C@H](C(N)=O)O3)cc(C2CC2)n1C	> 25000 nM	> 25000 nM
N#CCOc1ccc(Br)cc1[C@H](Nc1ccc2c(c1)CNC2)C(=O)NCC(F)F	57 nM and 42 nM	135 nM and 143 nM
Cc1c(C(=O)Nc2ccc3c(c2)CCC(=O)N3CC2CCC2)cc(C2CC2)n1C	> 25000 nM	> 25000 nM
Clc1cc(CNc2ccc3c(n2)CNC3)c2cn[nH]c2c1	> 25000 nM	> 25000 nM
Cc1c(C(=O)Nc2cccc(-c3nc(C4CC4)no3)c2)cc(C2CC2)n1C	> 25000 nM	> 25000 nM
N#Cc1cccc(-c2nc3c(C(=O)Nc4cccc(F)c4)cc(Cl)cc3[nH]2)c1	> 25000 nM	> 25000 nM
O=C(Nc1cnc2c(c1)CNC2)c1cc(F)cc2[nH]ncc12	27 nM and 15 nM	83 nM
O=C(NCC(F)F)[C@H](Nc1cc2c(cc1Br)CNC2)c1cc(Cl)cc(C2CC2)c1	19 nM and 13 nM	106 nM and 91 nM
CNC(=O)c1cc(Br)cc([C@H](Nc2ccc3c(c2)CNC3)C(=O)NCC(F)F)c1	19 nM and < 12 nM	104 nM and 88 nM
O=C1Nc2ccc(C(=O)Nc3ccc4c(c3)CNC4)cc2C1=O	1470 nM and 1730 nM	8150 nM
COc1ccc(-c2nc3c(C(=O)Nc4ccc5c(c4)CNC5)cc(F)cc3[nH]2)nn1	23 nM (2×) and 14 nM and 27 nM	90 nM and 98 nM
CC(C)(C)OC(=O)N1Cc2ccc(N[C@H](C(=O)O)c3cc(Cl)cc4[nH]ncc34)cc2C1	> 25000 nM	> 25000 nM
Cc1c(C(=O)Nc2cccc(-c3ccoc3)c2)cc(C2CC2)n1C	> 25000 nM	> 25000 nM
N#CCc1cc(NC(=O)c2cc(F)cc3[nH]ncc23)cc2c1CNC2	16 nM and < 12 nM	70 nM and 79 nM
O=C(NCC(F)F)[C@H](Nc1cnc2c(c1)CNC2)c1cc(Cl)cc(C2CC2)c1	20 nM and < 12 nM	114 nM and 107 nM
NCc1csc2cc(C(=O)Nc3ccc4c(c3)CNC4)ccc12	125 nM and 219 nM	216 nM
O=C1Cc2c(cccc2C(=O)Nc2cc(Br)c3ncnn3c2)N1	> 25000 nM	> 25000 nM
NCCCn1c(C2CC2)cc(C(=O)Nc2cc([C@H]3CCOC3)ccn2)c1C1CC1	> 25000 nM	> 25000 nM

Structure (SMILES)	IC50 (Nonstructural protein 3 [1])	IC50 (Nonstructural protein 3 [2])
O=C(Nc1ccc2c(c1)CNC2)c1cccc2c(C3CNC3)n[nH]c12	17 nM and 16 nM and < 12 nM	89 nM
Cc1c(C(=O)Nc2ccc3c(c2F)CCN(C)C3=O)cc(C2CC2)n1C	> 25000 nM	> 25000 nM
Cc1c(C(=O)Nc2cccc(Cn3cccn3)c2)cc(C2CC2)n1C	> 25000 nM	> 25000 nM
O=C1Cc2c(cccc2C(=O)Nc2cccc(-c3cn[nH]c3)c2)N1	> 25000 nM	> 25000 nM
O=C1Cc2c(cccc2C(=O)Nc2cccc(Cc3nn[nH]n3)c2)N1	> 25000 nM	> 25000 nM
Cc1c(C(=O)Nc2cc(C3CCOCC3)ccn2)cc(C2CC2)n1C	> 25000 nM	> 25000 nM
CS(=O)(=O)c1cncc(-c2cc(F)cc(C(=O)Nc3ccc4c(c3)CNC4)c2)c1	88 nM and 77 nM	158 nM
Cc1c(C(=O)Nc2ccc3c(c2)C(=O)NC3)cc(C2CC2)n1C	> 25000 nM	> 25000 nM
O=C(NCC(F)F)[C@H](Nc1ccc2c(c1)CNC2)c1cc(Br)cc2cn[nH]c12	29 nM and 20 nM	141 nM and 127 nM
N#Cc1cccc(-c2nc3c(C(=O)Nc4ccccn4)cc(Cl)cc3[nH]2)c1	> 25000 nM	> 25000 nM
Nc1ccncc1-c1cc(F)cc(C(=O)Nc2ccc3c(c2)CNC3)c1	54 nM and 38 nM	146 nM
CCc1cnc2c(NC(=O)c3cccc4c3CC(=O)N4)cnn2c1	> 25000 nM	> 25000 nM
O=C1C[C@H](c2cccc(-c3cc(F)cc(C(=O)Nc4ccc5c(c4)CNC5)c3)c2)N1	77 nM and 66 nM	130 nM and 131 nM
CC(=O)N(c1ccc2c(c1)CNC2)[C@]1(c2cc(Cl)cc(C3CC3)c2)CCCN(C)C1=O	> 25000 nM	> 25000 nM
O=C1Cc2c(cccc2C(=O)Nc2nc([C@H]3CCCOC3)cs2)N1	> 25000 nM	> 25000 nM
Cc1c(C(=O)Nc2cccc(CN3CCCC3=O)c2)cc(C2CC2)n1C	> 25000 nM	> 25000 nM
O=C(NCC(F)F)[C@H](Nc1ccc2c(c1)CNC2)c1cc(Br)cc2ccccc12	99 nM and 77 nM	143 nM and 147 nM
O=C1Cc2c(cccc2C(=O)Nc2ccc(N3CCOC3=O)nc2)N1	> 25000 nM	> 25000 nM
Cc1cc(NC(=O)c2cc(C3CC3)n(C)c2C)ccc1OC1CCOCC1	> 25000 nM	> 25000 nM
O=C(Nc1cc2c(cn1)CNC2)c1cc(F)cc2[nH]ncc12	77 nM and 55 nM	163 nM
Cc1c(C(=O)Nc2ccc3c(c2)CN(C)C3=O)cc(C2CC2)n1C	> 25000 nM	> 25000 nM
Cn1nc(CNc2cc([C@H]3CCOC3)ccn2)cc1C1CC1	> 25000 nM	> 25000 nM
C[C@H](NC(=O)c1cccc2c1CC(=O)N2)c1nnc2n1CCCC2	> 25000 nM	> 25000 nM

More lines, now with the values ahead:

IC50 (Nonstructural protein 3 [1])	IC50 (Nonstructural protein 3 [2])	Structure (SMILES)
> 25000 nM	> 25000 nM	Cc1c(C(=O)Nc2cccc(CS(C)(=O)=O)c2)cc(C2CC2)n1C
4190 nM	19600 nM	O=C(NCC(F)F)[C@H](Nc1ncc2c(n1)CNC2)c1cc(Cl)cc(C2CC2)c1
> 25000 nM	> 25000 nM	O=C1Cc2c(cccc2C(=O)Nc2ccc3c(c2)[C@H](O)CCO3)N1
> 25000 nM	> 25000 nM	O=C1Cc2c(cccc2C(=O)Nc2ccnn2Cc2ccncc2)N1
> 25000 nM	> 25000 nM	CC(C)CNC(=O)c1cc(Cl)cc2[nH]c(-c3cccc(C#N)c3)nc12
> 25000 nM	> 25000 nM	Cn1nc(CNc2cc(-c3cccnc3)ccn2)cc1C1CC1
22700 nM	> 25000 nM	CC(=O)N(c1ccc2c(c1)CNC2)[C@]1(c2cc(Cl)cc(C3CC3)c2)CN(C)C1=O
> 25000 nM	> 25000 nM	CO[C@H]1Cc2ccc(NC(=O)c3cc(C4CC4)n(C)c3C)cc2C1
> 25000 nM	> 25000 nM	O=C1Cc2c(cccc2C(=O)Nc2nnc3n2CCCS3)N1
182 nM	260 nM	O=C(O)COc1ccc(Cl)cc1[C@H](Nc1ccc2c(c1)CNC2)C(=O)NCC(F)F
297 nM	320 nM and 334 nM	C=C(C)c1ccc(Cl)cc1[C@H](Nc1ccc2c(c1)CNC2)C(=O)NCC(F)F
1230 nM	2110 nM	O=C1Cc2c(cccc2C(=O)Nc2ccc3c(c2)CCNCC3)N1
126 nM	714 nM	CC(=O)N1CC[C@]2(C1)C(=O)Nc1cccc(C(=O)Nc3ccc4c(c3)CNC4)c12
185 nM	1060 nM and 2300 nM	CC(C)NC(=O)C[C@H]1NCc2cc(NC(=O)c3cc(Cl)cc4[nH]ncc34)ccc21
192 nM	317 nM and 284 nM	O=C(Nc1ccc2c(c1)CN[C@H]2CC1CC1)c1cc(F)cc2[nH]ncc12
9190 nM	18100 nM and > 25000 nM	CC1(C)NCc2cc(NC(=O)c3cc(F)cc4[nH]ncc34)ccc21
481 nM	2120 nM and 2360 nM	CN(C)C(=O)C[C@H]1NCc2cc(NC(=O)c3cc(Cl)cc4[nH]ncc34)ccc21

IC50 (Nonstructural protein 3 [1])	IC50 (Nonstructural protein 3 [2])	Structure (SMILES)
1510 nM	3580 nM and 3950 nM	C[C@H]1NCc2ccc(NC(=O)c3cc(Cl)cc4[nH]ncc34)cc21
187 nM	999 nM and 1080 nM	CNC(=O)C[C@H]1NCc2cc(NC(=O)c3cc(Cl)cc4[nH]ncc34)ccc21
2380 nM	3720 nM	CC(=O)N[C@]1(C)C(=O)Nc2cc(F)cc(C(=O)Nc3ccc4c(c3)CNC4)c21
3990 nM	7760 nM and 9210 nM	C[C@]1(S(C)(=O)=O)C(=O)Nc2cc(F)cc(C(=O)Nc3ccc4c(c3)CNC4)c21
215 nM	255 nM and 550 nM	O=C(Nc1ccc2c(c1)CN[C@H]2C1CC1)c1cc(F)cc2[nH]ncc12
1540 nM	2320 nM	NCc1cccc(NC(=O)c2cccc3c2CC(=O)N3)c1
358 nM	636 nM	O=C(NCC(F)F)[C@H](Nc1ccc2c(c1)CNC2)c1cc(Br)ccc1C1CC1
10700 nM	4160 nM and 3340 nM	C[C@H]1C(=O)Nc2ccc(C(=O)Nc3ccc4c(c3)CNC4)cc21
1210 nM	4620 nM	COCCN(C)C(=O)[C@H](Nc1ccc2c(c1)CNC2)c1cc(Cl)cc(C2CC2)c1
487 nM	502 nM and 1320 nM	CN(C)C(=O)C[C@H]1NCc2cc(NC(=O)c3cc(F)cc4[nH]ncc34)ccc21
333 nM	533 nM	NCCc1cccc(NC(=O)c2cccc3c2CC(=O)N3)c1
488 nM	646 nM and 1460 nM	C[C@H]1NCc2cc(NC(=O)c3cc(F)cc4[nH]ncc34)ccc21
212 nM	198 nM and 238 nM	O=C(NCC(F)F)[C@H](Nc1ccc2c(c1)CNC2)c1cc(Br)ccc1Oc1ccc(Cl)c(Cl)c1
1330 nM	3180 nM and 3280 nM	O=C(Nc1ccc2c(c1)CN[C@H]2C(=O)O)c1cc(F)cc2[nH]ncc12
401 nM	2100 nM	O=C([C@H](Nc1ccc2c(c1)CNC2)c1cc(Cl)cc(C2CC2)c1)N1CCOCC1
2770 nM	7500 nM	N[C@H]1Cc2ccc(NC(=O)c3cccc4c3CC(=O)N4)cc2C1
1870 nM	3460 nM	CC(C)n1nncc1-c1cc(F)cc(C(=O)Nc2ccc3c(c2)CNC3)c1
